Measured values as given in US11136295B2, “D-amphetamine compounds, compositions, and processes for making and using the same” (KemPharm, Inc., priority 2018, dated 2021).

Legend:
[1] = Intravenous pharmacokinetic study in rats (tail vein; plasma d-amphetamine by LC-MS/MS); format: in vivo, rat; conditions: for AUC0-2 hr / Cmax / Tmax: d-amphetamine in plasma, rat, intravenous (tail vein), 5.6 μmol/kg, sampled to 2 hours
Procedure: (§1) Conjugates of d-amphetamine, and d-amphetamine sulfate or lisdexamfetamine dimesylate comparator compound were dissolved in an appropriate vehicle and administered in rats at doses of 5.6 μmol/kg by injecting the solution into the tail vein. Whole blood samples were collected via retro-orbital bleeding at 5 minutes and at 0.25, 0.5, 1 and 2 hours postdose. Blood samples were centrifuged and the resulting plasma samples were collected for analysis of levorphanol concentrations by LC-MS/MS.

[2] = Oral pharmacokinetic study in rats (plasma amphetamine by LC-MS/MS); format: in vivo; conditions: d-amphetamine in plasma; rat, oral gavage, 5.6 μmol/kg; 6-hour time course
Procedure: as §1, with “rats via oral gavage” for “rats”, “5.6 μmol/kg.” for “5.6 μmol/kg by injecting the solution into the tail vein.”, “at” for “at 5 minutes and at”, “0.5, 1, 2, 4,” for “0.5, 1”, “and optionally at 3 and 6” for “and 2”, “of amphetamine” for “of levorphanol”

[3] = Intranasal pharmacokinetic study in rats (plasma amphetamine by LC-MS/MS); format: in vivo; conditions: d-amphetamine in plasma, rat, 4-hour time course

Row | Molecule | melting point [°C] | exposure to d-amphetamine after intravenous administration compared to the nicotinoyl analogue ([1]; intravenous, compared to AMP-CO2CH2-nicotinoyl-Val-NH2, FIG. 32) | AUC0-4 hr [2] [ng·h/mL] | AUC0-6 hr [2] [ng·h/mL] | Cmax [2] [ng/mL] | Tmax [2] [min] | AUC0-2 hr [1] [ng·h/mL] | Cmax [1] [ng/mL] | Tmax [1] [min] | AUC0-1 hr [3] [ng·h/mL] | AUC0-4 hr [3] [ng·h/mL] | Cmax [3] [ng/mL] | Tmax [3] [min]
1 | C[C@@H](Cc1ccccc1)NC(=O)OC[n+]1ccc(C(=O)O)cc1 [AMP-CO2CH2-isonicotinate, d-amphetamine-CO2CH2-isonicotinate] | 168 to 170 |  |  |  |  |  |  |  |  |  |  |  | 
2 | CC(C)[C@H](NC(=O)c1cc[n+](COC(=O)N[C@@H](C)Cc2ccccc2)cc1)C(N)=O [AMP-CO2CH2-isonicotinoyl-Val-NH2, d-amphetamine-CO2CH2-isonicotinoyl-valinamide] |  | decreases exposure to d-amphetamine |  |  |  |  |  |  |  |  |  |  | 
3 | d-amphetamine-CO2CH2-isonicotinate ethyl ester [AMP-CO2CH2-isonicotinate(Et)] |  |  | 75.4 | 106.6 | 26.0 | 90 | 26.5 | 18.8 | 43.2 | 8.6 | 32.6 | 11.1 | 37.8
4 | CCOC(=O)C(C)NC(=O)c1cc[n+](COC(=O)N[C@@H](C)Cc2ccccc2)cc1 (stereo partly drawn) [AMP-CO2CH2-isonicotinoyl-Ala-OEt, d-amphetamine-CO2CH2-isonicotinoyl-alanine ethyl ester] |  |  | 72.8 | 105.7 | 28.5 | 120 | 32.4 | 24.7 | 31.2 |  |  |  | 
